Experiments:
[1] = test system: Cholic acid-loaded rat model; experiment: Bile acid-decreasing effect in portal vein of rats loaded with cholic acid (Test Example 2); assay type: in vivo; details: portal vein blood after 2 hours
Protocol: Bile Acid-Decreasing Effect in Portal Vein of Rats Loaded With Cholic Acid
In this test example, the test for confirming the bile acid-decreasing effect in portal vein of cholic acid-loaded rats was carried out according to the method described in Pharmacology and Therapeutics [Jpn Pharmacol. Ther., Vol. 24 Supplement, 1996, 103 (S-577)-110 (S-584)].
That is, 7 to 9 weeks old SD (IGS) rats were starved on the day before the test and thereafter. […] After 2 hours from the administration, a sample of blood was taken from a portal vein and total serum bile acid level was measured to study the effect of the test compound (n=6). Further, as a control group, a group (n=6) loaded with cholic acid (200 mg/kg) only was prepared and the same test procedure was followed. A commercially available kit (trade name: SOTANJUSAN-TEST WAKO-(SOTANJUSAN=total bile acid), manufactured by WAKO PURE CHEMICAL […], LTD.) was used for the measurement of bile acid. Assuming the value of the control group, which is a group in which no test compound was used, as 100%, the rate of decrease (percentage (%) of decrease) of the bile acid level when a fixed amount of the test compound was used was determined.

human IBAT = molecular target: T1, human IBAT (Homo sapiens, UniProt Q12908); experiment: In vitro assay of temporarily expressed human IBAT transporter using Cos 7 cells (Test Example 8); assay type: cell-based; details: Cos 7 cells temporarily expressing human IBAT; [3H] taurocholate 8 μM, 37° C., 60 minutes
T1 construct: expressed in transfected cells; host or cells: Cos 7
T1 sequence (Q12908 1-348): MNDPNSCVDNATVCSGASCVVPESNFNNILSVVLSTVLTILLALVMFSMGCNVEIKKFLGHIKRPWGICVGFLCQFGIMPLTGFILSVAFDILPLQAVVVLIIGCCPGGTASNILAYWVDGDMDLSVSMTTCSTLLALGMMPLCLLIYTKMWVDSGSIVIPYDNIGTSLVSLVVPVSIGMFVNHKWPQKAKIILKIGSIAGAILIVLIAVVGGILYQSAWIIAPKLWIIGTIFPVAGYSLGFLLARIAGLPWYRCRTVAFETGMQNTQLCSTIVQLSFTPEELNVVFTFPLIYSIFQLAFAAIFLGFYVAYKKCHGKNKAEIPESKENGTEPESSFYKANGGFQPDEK
Protocol: In Vitro Assay of Compounds Which Inhibit Temporarily Expressed Human IBAT Transporter or Rat IBAT Transporter Using Cos 7 Cells
In this test example, the in vitro assay of the compounds which inhibit temporarily expressed human IBAT transporter or rat IBAT transporter using Cos cells was carried out according to the method described in Am. J. Physiol., 274, G157-169.
That is, […] Cos 7 were inoculated on a 24-well cell plate. One day later, 0.3 μg per well of cDNA of a human IBAT or a rat IBAT was transfected by using FuGENE6 (manufactured by ROCHE PHARMACEUTICAL CO., LTD.). For the assay, the cells cultured for one day after the transfection were used and the following procedure was followed. The cells were washed once with an assay buffer, Hank's buffer solution containing 25 mM glucose and with 10 mM HEPES (pH 7.4), and then the assay buffer was replaced by an assay buffer to which the test compound was added. After adding [^3H] taurocholate to a final concentration of 8 μM, the cells were incubated at 37° C. for 60 minutes. [^3H] taurocholate was allowed to be incorporated in Cos 7 cells through human IBAT or rat IBAT. The reaction was stopped by washing twice with a buffer prepared by adding 1 mM taurocholate to the assay buffer and lyzing the cells with 0.2M NaOH. Measurement of radioactivity was carried out by introducing the cell lyzate in 4 ml of liquid scintillation cocktail, stirring the mixture well, and then measuring the radioactivity by a scintillation counter.

Caco 2 cells = experiment: Toxicity with respect to alimentary canal: cytotoxicity to Caco 2, LDH activity (Test Example 12); assay type: cell-based, human; details: LDH activity after 2 hours, relative to cytolytic agent = 100%
Protocol: Toxicity With Respect to Alimentary Canal
To evaluate the toxicity of the compounds of the present invention to the alimentary canal, the cytotoxicity to Caco 2, which is a human originated small intestine epithelial cell line, was tested by referring to the method of Bestwick C S et al. [Biochimica et Biophysica Acta 1474: 47-55, 1999].
That is, Caco 2 cells (purchased from ATCC) were inoculated on a 96-well plate such that there were 10,000 cells/well [MEM-E medium, 10% FBS (Fetal Bovine Serum), 1% NEAA (Non Essential Amino Acid) solution, (both manufactured by GIBCO PHARMACEUTICAL COMPANY)]. After culturing for 48 hours, the test compounds were diluted with the culture medium and added to the respective wells. After 2 hours, 50 μl of the culture broth was collected and the LDH activity in the collected culture broth was measured by using an LDH activity measuring kit (CytoTox 96 Non-Radioactive Cytotoxicity Assay, manufactured by PROMEGA CORPORATION). Relative activities were calculated assuming the LDH activity as 100% when the Caco 2 cells were treated with the cytolytic agent and the obtained relative activities were taken as cytotoxicities to Caco 2 cell.

[2] = 0.1 mg/kg oral with cholic acid 200 mg/kg, HCO-60 0.1%
[3] = 0.3 mg/kg oral with cholic acid 200 mg/kg, HCO-60 0.1%

Compound	Rate of decrease (%) of bile acid ([1]; 0.1 mg/kg oral with cholic acid 200 mg/kg, Tween 20 0.05%) [%]	IC50 (human IBAT) [nM]	Rate of decrease (%) of bile acid [1, 2] [%]	Toxicity (%) to Caco 2 (Caco 2 cells; 3 μM) [%]	Toxicity (%) to Caco 2 (Caco 2 cells; 10 μM) [%]	Toxicity (%) to Caco 2 (Caco 2 cells; 30 μM) [%]	Rate of decrease (%) of bile acid [1, 3] [%]
CCCCC1(CCCC)CS(=O)(=O)c2ccc(N(C)C)cc2C(c2cccc(NC(=S)NCCC[N+](C)(C)Cc3ccccc3)c2)N1.[Br-] (stereo not shown) [Example 425]	21	170	–	–	–	–	–
CCCCC1(CCCC)CS(=O)(=O)c2ccc(N(C)C)cc2C(c2cccc(NC(=S)NCCCCC[N+](C)(C)Cc3ccccc3)c2)N1.[Br-] (stereo not shown) [Example 1178]	–	93	18	–	–	–	–
CCCCC1(CCCC)CS(=O)(=O)c2ccc(N(C)C)cc2C(c2cccc(NC(=S)Nc3ccc(C[N+](C)(C)CCCC)cc3)c2)N1.[Br-] (stereo not shown) [Example 3409]	–	45	28	<1	<1	<1	–
CCCCC1(CCCC)CS(=O)(=O)c2ccc(N(C)C)cc2C(c2cccc(NC(=S)Nc3ccc(C[N+]4(Cc5ccccc5)CCC(CO)CC4)cc3)c2)N1.[Br-] (stereo not shown) [Example 3607]	–	41	36	<1	<1	<1	–
CCCCC1(CCCC)CS(=O)(=O)c2ccc(N(C)C)cc2C(c2cccc(NC(=S)Nc3ccc(C[N+]4(Cc5ccccc5)CCC(CCO)CC4)cc3)c2)N1.[Br-] (stereo not shown) [Example 3608]	–	59	43	<1	<1	<1	–
CCCCC1(CCCC)CS(=O)(=O)c2ccc(N(C)C)cc2C(c2cccc(NC(=S)Nc3ccc(C[n+]4ccc(CC)cc4)cc3)c2)N1.[Br-] (stereo not shown) [Example 3710]	–	52	20	<1	<1	<1	–
CCCCC1(CCCC)CS(=O)(=O)c2ccc(N(C)C)cc2C(c2cccc(NC(=S)Nc3ccc(C[n+]4ccc(C#N)cc4)cc3)c2)N1.[Br-] (stereo not shown) [Example 3753]	–	–	–	–	–	–	8.5
CCCCC1(CCCC)CS(=O)(=O)c2ccc(N(C)C)cc2C(c2cccc(NC(=S)Nc3ccc(C[n+]4cccc(CC#N)c4)cc3)c2)N1.[Br-] (stereo not shown) [Example 3759]	–	–	–	<1	<1	<1	36
CCCCC1(CCCC)CS(=O)(=O)c2ccc(N(C)C)cc2C(c2cccc(NC(=S)Nc3ccc(C[n+]4ccc5ccccc5c4)cc3)c2)N1.[Br-] (stereo not shown) [Example 3783]	–	48	16	<1	<1	<1	–
CCCCC1(CCCC)CS(=O)(=O)c2ccc(N(C)C)cc2C(c2cccc(NC(=S)Nc3cccc(C[N+](C)(C)Cc4ccccc4)c3)c2)N1.[Br-] (stereo not shown) [Example 4257]	–	–	30	–	–	–	–
CCCCC1(CCCC)CS(=O)(=O)c2ccc(N(C)C)cc2C(c2cccc(NC(=S)Nc3cccc(C[N+]4(Cc5ccccc5)CCC(CO)CC4)c3)c2)N1 (stereo not shown) [Example 4424]	–	91	17	–	–	–	–
CCCCC1(CCCC)CS(=O)(=O)c2ccc(N(C)C)cc2C(c2cccc(NC(=S)Nc3cccc(C[N+]4(Cc5ccccc5)CCC(CCO)CC4)c3)c2)N1 (stereo not shown) [Example 4425]	–	89	22	–	–	–	–
CCCCC1(CCCC)CS(=O)(=O)c2ccc(N(C)C)cc2C(c2cccc(NC(=S)Nc3cccc(C[N+]45CCC(CC4)CC5)c3)c2)N1 (stereo not shown) [Example 4512]	–	63	37	–	–	–	–
CCCCC1(CCCC)CS(=O)(=O)c2ccc(N(C)C)cc2C(c2cccc(NC(=S)Nc3ccccc3C[N+]34CCC(CC3)CC4)c2)N1.[Br-] (stereo not shown) [Example 4905]	–	–	28	–	–	–	–
CCCCC1(CCCC)CS(=O)(=O)c2ccc(N(C)C)cc2C(c2ccc(NC(=S)Nc3ccc(C[N+](C)(C)Cc4ccccc4)cc3)cc2)N1.[Br-] (stereo not shown) [Example 5405, Benzyl-(4-{3-[4-(3,3-dibutyl-7-dimethylamino-1,1-dioxo-2,3,4,5-tetrahydro-1,4-benzothiazepin-5-yl)phenyl]thioureido}-benzyl)dimethylammonium bromide]	–	–	16	–	–	–	–

Reference: patent publication US7803792B2, “Quaternary ammonium compounds” (Asahi Kasei Pharma Corporation, priority 2002, dated 2010)
